# What was measured:
# [1] = body weight of mice during treatment; assay type: in vivo, Sabra mice; settings: for effect on weight vs control (comparison study): 1 mg/kg i.p. days 8-12, female Sabra mice (FIG. 8, Example 3)
# Description: (§1) Young female Sabra mice were assigned at random to different groups (untreated controls or treated with 1 mg/kg Compound X Intra Peritoneally) of 10 mice per cage. The weights of the animals were similar at the beginning of the experiment. All cages contained wood-chip bedding and were placed in a temperature-controlled room at 22° C., on a 12-h light/dark cycle (lights on at 07.00 h). The mice had free access to water 24 h a day. The mice were fed ad-libitum, body weight was measured twice a week during the experiment and food consumption was calculated.
# Compound X may also be given orally. Compound X (gavage) or saline (control) were administered to Sabra mice by oral gavage.
# (§2) This study compared the effects of Compound X and Rimonabant. Female Sabra mice (32 g average weight) were divided randomly to 3 experimental groups: (a) control; (b) Compound X; and (3) Rimonabant, 10 mice in each group. Food consumption and weight were evaluated during the experiment. During the second week, mice were evaluated for cognitive function during 5 days using the eight arm maze. 15 min before evaluation mice were injected i.p. with either saline or 1 mg/kg Compound X or Rimonabant (days 8-12).
# [2] = total food consumption in mice; assay type: in vivo, Sabra mice; settings: 1 mg/kg i.p.; for effect on total food consumption in the second week (comparison study): second week during administration, vs control (FIG. 9B, Example 3)
# Description: as §1
# Total food consumption was evaluated in the first week before treatment and at the second week during the treatment (FIGS. 2A and 2B).
# as §2
# Total food consumption was evaluated in the first week before treatment and at the second week during the treatment (FIGS. 9A and 9B, respectively).
# [3] = cognitive function evaluated by an 8 arm maze; assay type: in vivo, Sabra mice; settings: for effect on cognitive function (8 arm maze; comparison study): 1 mg/kg, second week of treatment (FIG. 12, Example 3)
# Description: Mice were subjected to the treatment regimen outlined in Example 1, and during the second week of treatment their cognitive function was evaluated by an 8 arm maze on the second week of the experiment 15 minutes after injection. Two hours before the test, the mice were on a water deprivation schedule. At the end of each arm there was a drop of water as a reward. Each mouse was evaluated for its performance in the maze. The mice were observed until they made entries to all eight arms or until they completed 24 entries (whichever came first). The results, depicted in FIG. 3, were calculated as AUC (area under the curve) as follows: day2+day3+day4+day5−4(day1).
# as §2
# Mice were subjected to treatment with Compound X (1 mg/kg) or Rimonabant (1 mg/kg), and during the second week of treatment their cognitive function was evaluated by an 8 arm maze as described above in Example 2.
# [4] = locomotor activity in an open field (activity index); assay type: in vivo, Sabra mice; settings: 1 mg/kg i.p.; for effect on activity (mean number of crossings per minute; comparison study): open field (FIG. 10, Example 3)
# Description: Activity of the mice was assessed in an open field (20×30 cm) divided into 12 squares of equal size. Two mice were observed simultaneously for 5 minutes. The activity test was performed on day 11 of the experiment. Locomotor activity was recorded by counting the number of crossings by the mice at one minute intervals. The results, depicted in FIG. 4, are presented as the mean number of crossings per minute.
# Activity of the mice was assessed in an open field (20×30 cm) divided into 12 squares of equal size, as detailed in Example 2. The results, depicted in FIG. 10, are presented as the mean number of crossings per minute.
# [5] = neurological score by the NSS method; assay type: in vivo, Sabra mice; settings: 1 mg/kg i.p., day 10 (FIG. 11, Example 3)
# Description: as §2
# Neurological score was evaluated by the NSS method Neurological function was assessed by a 10 point scale based on reflexes and task performance 37: Exit from a circle 1 meter in diameter in less than 1 minute, seeking, walking a straight line, startle reflex, grasping reflex, righting reflex, placing reflex, corneal reflex, maintaining balance on a beam 3, 2 and 1 cm in width, climbing onto a square and a round pole. For each task failed or abnormal reflex reaction a score of 1 was assigned. Thus, a higher score indicates poorer neurological function on day 10.
# ALT levels = ALT levels in mice; assay type: in vivo, Sabra mice; settings: 1 mg/kg i.p., mice sacrificed 71 days after treatment (FIG. 13, Example 3)
# Description: as §2
# Mice were sacrificed 71 days after treatment, and ALT levels were measured.
# [6] = test system: 2-AG levels in the hypothalamus; experiment: 2-AG levels in the hypothalamus (TLC followed by GC-MS); assay type: in vivo, mice; settings: treated group vs. control, 1 mg/kg i.p., p<0.05 (FIG. 5)
# Description: (§3) Mice were decapitated and their brains rapidly removed, and the hypothalamus and hippocampus were dissected. 2-AG levels in the hypothalamus were evaluated using TLC followed by GC-MS analysis.
# [7] = test system: Serotonin (5-HT) levels in the hypothalamus; experiment: serotonin (5-HT) levels in the hypothalamus (HPLC-ECD); assay type: in vivo, mice; settings: treated group vs. control, 1 mg/kg i.p., p<0.05 (FIG. 6)
# Description: as §3
# (§4) Serotonin (5-HT) and norepinephrine (NE) were valuated in the hypothalamus (serotonin and norepinephrine) and hippocampus (norepinephrine), using HPLC-ECD.
# [8] = test system: norepinephrine (NE) levels; experiment: norepinephrine (NE) levels in hippocampus and hypothalamus (HPLC-ECD); assay type: in vivo, mice; settings: 1 mg/kg i.p.
# Description: as §3, §4
# PPAR-α = target: T1, PPAR-α (Homo sapiens, UniProt Q07869); settings: reported by Giuseppe et al. 2006; read-out: EC50 for stimulating transcriptional activity of PPAR-α; cited from earlier work
# T1 sequence (Q07869 1-468): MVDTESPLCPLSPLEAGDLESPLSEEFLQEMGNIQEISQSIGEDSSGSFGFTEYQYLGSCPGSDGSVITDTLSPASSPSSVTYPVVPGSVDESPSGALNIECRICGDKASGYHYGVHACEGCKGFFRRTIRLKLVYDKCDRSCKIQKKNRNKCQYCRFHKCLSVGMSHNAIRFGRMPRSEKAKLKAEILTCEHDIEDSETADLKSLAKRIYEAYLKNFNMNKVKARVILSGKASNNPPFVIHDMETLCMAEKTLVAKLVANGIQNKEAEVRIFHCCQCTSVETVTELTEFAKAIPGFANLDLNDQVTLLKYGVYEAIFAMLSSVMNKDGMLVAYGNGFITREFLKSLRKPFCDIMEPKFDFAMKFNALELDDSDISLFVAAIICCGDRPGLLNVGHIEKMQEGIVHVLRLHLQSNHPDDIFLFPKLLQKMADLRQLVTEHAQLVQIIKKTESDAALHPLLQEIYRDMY
smiles,measurement,setting,value
"Cc1c(C(=O)NN2CCCCC2)nn(-c2ccc(Cl)cc2Cl)c1-c1ccc(Cl)cc1 [Rimonabant, reference compound]",effect on weight vs control (comparison study),[1],no significant difference in weight loss
same,effect on total food consumption in the second week (comparison study),[2],no significant differences
same,effect on cognitive function (8 arm maze; comparison study),[3],did not significantly affect cognitive function
same,effect on activity (mean number of crossings per minute; comparison study),[4],significantly decreased activity
same,"effect on neurological score (NSS, 10 point scale; higher score = poorer function)",[5],tendency to increase it
same,effect on ALT levels,ALT levels,raised them significantly
"CCCCCCCC/C=C\CCCCCCCC(=O)N[C@H](CO)C(C)C [Compound X, ((Z-Octadec)-9-enoic acid 1-hydroxymethyl-2-methyl-propyl)-amide]",duration of the decrease in weight after administration,"[1]; 1 mg/kg Intra Peritoneally, female Sabra mice (Example 1)",about 15 days
same,effect on weight vs control (comparison study),[1],significant decrease in weight
same,continuation of the weight effect after re-administration on day 43,"[1]; administered again on day 43, female Sabra mice (Example 3)",28 days
same,continuation of the weight effect without further administration,"[1]; after 1 mg/kg i.p. days 8-12, female Sabra mice (Example 3)",31 days
same,"effect on body weight, oral gavage","[1]; oral gavage vs saline control, Sabra mice (FIG. 1B)",significantly decreasing the weight
same,decrease in food consumption,[2]; p<0.05 (Examples 1-2 conclusion),7%
same,effect on total food consumption in the second week (comparison study),[2],decreased food consumption significantly
same,effect on total food consumption in the second week,"[2]; second week during treatment, P<0.05 (FIG. 2B, Example 1)",significantly decreased food consumption
same,improvement in cognitive function (8 arm maze),[3]; 1 mg/kg i.p. (Examples 1-2 conclusion),400%
same,"effect on cognitive function (8 arm maze, AUC)","[3]; 1 mg/kg i.p., second week, 15 minutes after injection (FIG. 3, Example 2)",improved significantly
same,effect on cognitive function (8 arm maze; comparison study),[3],improved significantly
same,effect on activity (mean number of crossings per minute),"[4]; day 11, open field, p<0.001 (FIG. 4, Example 2)",significant increase in the activity
same,effect on activity (mean number of crossings per minute; comparison study),[4],significant increase in the activity
same,increased activity,[4]; p<0.001 (Examples 1-2 conclusion),36%
same,effect on 2-AG levels in the hypothalamus,[6],significant decrease
same,effect on serotonin levels in the hypothalamus,[7],increased significantly
same,effect on NE levels in the hippocampus,[8]; p<0.05 (FIG. 7A),significantly increased
same,effect on NE levels in the hypothalamus,[8]; p<0.05 (FIG. 7B),significantly increased
same,"effect on neurological score (NSS, 10 point scale; higher score = poorer function)",[5],did not change the neurological score
same,effect on ALT levels,ALT levels,slightly increased ALT levels
"CCCCCCCC/C=C\CCCCCCCC(=O)N[C@H](C)CO [KDS-5104, (Z)—(R)-9-octadecenamide, N-2(hydroxyethyl,1-methyl)]",EC50,PPAR-α,100 nM

# — US9428448B2, “Compounds and methods of treating obesity” (Yissum Research Development Company of the Hebrew …, priority 2008, dated 2016)
